Assay results reported in US11540518B2, “Fungicidal oxadiazoles” (FMC Corporation, priority 2017, dated 2023).

Legend:
Type in all cases: in vivo
[1] = test system: Puccinia recondita f. sp. tritici; assay: Test C: wheat leaf rust control on wheat seedlings; conditions: sprayed to run-off on wheat seedlings, inoculated the following day, 100 = 100% disease control, 0 = no control
Excerpt: General protocol for preparing test suspensions for Tests A-C: the test compounds were first dissolved in acetone in an amount equal to 3% of the final volume and then suspended at the desired concentration (in ppm) in acetone and purified water (50/50 mix by volume) containing 250 ppm of the surfactant PEG400 (polyhydric alcohol esters). The resulting test suspensions were then used in Tests A-C. The test solution was sprayed to the point of run-off on wheat seedlings. The following day the seedlings were inoculated with a spore suspension of Puccinia recondita f. sp. tritici (the causal agent of wheat leaf rust) and incubated in a saturated atmosphere at 20° C. for 24 h, and then moved to a growth chamber at 20° C. for 6 days, after which time disease ratings were made. Results for Tests A-C are given in Table A. In the Table, a rating of 100 indicates 100% disease control and a rating of 0 indicates no disease control (relative to the controls). A dash (-) indicates the compound was not tested.

[2] = test system: Phakopsora pachyrhizi; assay: Test A: Asian soybean rust control on soybean seedlings; conditions: sprayed to run-off on soybean seedlings, inoculated the following day, 100 = 100% disease control, 0 = no control
Excerpt: General protocol for preparing test suspensions for Tests A-C: the test compounds were first dissolved in acetone in an amount equal to 3% of the final volume and then suspended at the desired concentration (in ppm) in acetone and purified water (50/50 mix by volume) containing 250 ppm of the surfactant PEG400 (polyhydric alcohol esters). The resulting test suspensions were then used in Tests A-C.
The test solution was sprayed to the point of run-off on soybean seedlings. The following day the seedlings were inoculated with a spore suspension of Phakopsora pachyrhizi (the causal agent of Asian soybean rust) and incubated in a saturated atmosphere at 22° C. for 24 h, and then moved to a growth chamber at 22° C. for 8 days, after which time visual disease ratings were made.
Results for Tests A-C are given in Table A. In the Table, a rating of 100 indicates 100% disease control and a rating of 0 indicates no disease control (relative to the controls). A dash (-) indicates the compound was not tested.

[3] = test system: Zymoseptoria tritici; assay: Test B: wheat leaf blotch control on wheat seedlings; conditions: 250 ppm (incl. values marked * = tested at 250 ppm), sprayed to run-off on wheat seedlings, inoculated the following day; 100 = 100% disease control, 0 = no control
Excerpt: General protocol for preparing test suspensions for Tests A-C: the test compounds were first dissolved in acetone in an amount equal to 3% of the final volume and then suspended at the desired concentration (in ppm) in acetone and purified water (50/50 mix by volume) containing 250 ppm of the surfactant PEG400 (polyhydric alcohol esters). The resulting test suspensions were then used in Tests A-C. The test solution was sprayed to the point of run-off on wheat seedlings. The following day the seedlings were inoculated with a spore suspension of Zymoseptoria tritici (the causal agent of wheat leaf blotch) and incubated in a saturated atmosphere at 24° C. for 48 h, and then moved to a growth chamber at 20° C. for 17 days, after which time disease ratings were made. Results for Tests A-C are given in Table A. In the Table, a rating of 100 indicates 100% disease control and a rating of 0 indicates no disease control (relative to the controls). A dash (-) indicates the compound was not tested.

| SMILES | Test C disease control rating ([1]; 10 ppm) [%] | Test A disease control rating ([2]; 10 ppm) [%] | Test C disease control rating ([1]; 50 ppm) [%] | Test A disease control rating ([2]; 50 ppm) [%] | further results |
| --- | --- | --- | --- | --- | --- |
| CNC(=O)OCc1ccc(-c2noc(C(F)(F)F)n2)s1 [Compound 38] | 96 | 94 | – | – | Test B disease control rating [3]: 80* % |
| CCCNC(=O)OC(C)c1ccc(-c2noc(C(F)(F)F)n2)cc1 (centres unmarked) [Compound 73] | 68 | 100 | – | – | – |
| COC(=O)c1ccc(NC(=O)OCCCc2ccc(-c3noc(C(F)(F)F)n3)cc2)cc1 [Compound 50] | – | – | 0 | 0 | – |
| CCOC(=O)c1ccc(CNC(=O)OCCCc2ccc(-c3noc(C(F)(F)F)n3)cc2)cc1 [Compound 69] | – | – | 0 | 100 | – |
| CCOC(=O)NN=Cc1ccc(-c2noc(C(F)(F)F)n2)cc1 [Compound 107] | 99 | 100 | – | – | – |
| CCOC(=O)c1ccc(NC(=O)OCCCc2ccc(-c3noc(C(F)(F)F)n3)cc2)cc1 [Compound 60] | – | – | 0 | 0 | – |
| COC(=O)c1ccc(NC(=O)OCCc2ccc(-c3noc(C(F)(F)F)n3)cc2)cc1 [Compound 49] | – | – | 0 | 96 | – |
| C=CCNC(=O)OCc1ccc(-c2noc(C(F)(F)F)n2)cc1 [Compound 51] | 99 | 100 | – | – | – |
| COc1ccc(C(OC(=O)n2ccnc2)c2ccc(-c3noc(C(F)(F)F)n3)cc2)cc1 (centres unmarked) [Compound 83] | – | – | 100 | 100 | – |
| NC(=O)OCc1ccc(-c2noc(C(F)(F)F)n2)o1 [Compound 80] | 0 | 0 | – | – | – |
| O=C(Nc1cccnc1)OCCc1ccc(-c2noc(C(F)(F)F)n2)cc1 [Compound 34] | – | – | 98 | 100 | – |
| C#CCNC(=O)OCCc1ccc(-c2noc(C(F)(F)F)n2)cc1 [Compound 45] | 93 | 100 | – | – | – |
| CC#CCNC(=O)OCCc1ccc(-c2noc(C(F)(F)F)n2)cc1 [Compound 63] | – | – | 100 | 100 | – |
| CCN(C)C(=O)OCc1ccc(-c2noc(C(F)(F)F)n2)cc1 [Compound 52] | 68 | 100 | – | – | – |
| C#CCNC(=O)OC(C)c1ccc(-c2noc(C(F)(F)F)n2)s1 (centres unmarked) [Compound 61] | 100 | 100 | – | – | – |
| CNC(=O)OCCCc1ccc(-c2noc(C(F)(F)F)n2)cc1 [Compound 31] | 99 | 100 | – | – | – |
| CCNC(=O)OC(c1ccccc1)c1ccc(-c2noc(C(F)(F)F)n2)cc1 (centres unmarked) [Compound 110] | – | – | – | – | Test C disease control rating ([1]; 250 ppm): 100%; Test A disease control rating ([2]; 250 ppm): 100% |
| COC(=O)c1ccc(NC(=O)OC(C)c2ccc(-c3noc(C(F)(F)F)n3)cc2)cc1 (centres unmarked) [Compound 48] | – | – | 97 | 100 | – |
| C#CCCNC(=O)OC(c1ccccc1)c1ccc(-c2noc(C(F)(F)F)n2)cc1 (centres unmarked) [Compound 120] | – | – | – | – | Test C disease control rating ([1]; 250 ppm): 100%; Test A disease control rating ([2]; 250 ppm): 100% |
| CCOC(=O)c1ccc(CNC(=O)OCCc2ccc(-c3noc(C(F)(F)F)n3)cc2)cc1 [Compound 68] | – | – | 0 | 99 | – |
| C#CCCNC(=O)OCCCc1ccc(-c2noc(C(F)(F)F)n2)cc1 [Compound 65] | – | – | 100 | 100 | – |
| O=C(NC1CC1)OCc1ccc(-c2noc(C(F)(F)F)n2)cc1 [Compound 54] | 92 | 100 | – | – | – |

| SMILES | Test C disease control rating ([1]; 10 ppm) [%] | Test A disease control rating ([2]; 10 ppm) [%] | Test C disease control rating ([1]; 50 ppm) [%] | Test A disease control rating ([2]; 50 ppm) [%] | further results |
| --- | --- | --- | --- | --- | --- |
| COC(=O)NN=C(C)c1ccc(-c2noc(C(F)(F)F)n2)cc1 [Compound 108] | 89 | 92 | – | – | – |
| CCOC(=O)c1ccc(CNC(=O)OCc2ccc(-c3noc(C(F)(F)F)n3)cc2)cc1 [Compound 26] | 26 | 95 | – | – | – |
| CONC(=O)OCc1ccc(-c2noc(C(F)(F)F)n2)cc1 [Compound 136] | 0 | 79 | – | – | – |
| CCOC(=O)c1ccc(NC(=O)OC(C)c2ccc(-c3noc(C(F)(F)F)n3)cc2)cc1 (centres unmarked) [Compound 58] | – | – | 79 | 100 | – |
| COCCNC(=O)OC(c1ccccc1)c1ccc(-c2noc(C(F)(F)F)n2)cc1 (centres unmarked) [Compound 122] | 89 | 100 | – | – | – |
| CC(OC(=O)n1ccnc1)c1ccc(-c2noc(C(F)(F)F)n2)cc1 (centres unmarked) [Compound 70] | 68 | 99 | – | – | – |
| CCNC(=O)OCCCc1ccc(-c2noc(C(F)(F)F)n2)cc1 [Compound 20] | 99 | 100 | – | – | – |
| C=CCNC(=O)OCCCc1ccc(-c2noc(C(F)(F)F)n2)cc1 [Compound 29] | 74 | 100 | – | – | – |
| COC(=O)c1ccc(CNC(=O)OC(C)c2ccc(-c3noc(C(F)(F)F)n3)cc2)cc1 (racemic) [Compound 25] | 26 | 100 | – | – | – |
| COC(=O)c1ccc(CNC(=O)OC(c2ccccc2)c2ccc(-c3noc(C(F)(F)F)n3)cc2)cc1 (centres unmarked) [Compound 119] | – | – | – | – | Test C disease control rating ([1]; 250 ppm): 74%; Test A disease control rating ([2]; 250 ppm): 100% |
| CN(N=Cc1ccc(-c2noc(C(F)(F)F)n2)cc1)C(=O)OC(C)(C)C [Compound 109] | – | – | 95 | 100 | – |
| CC#CCNC(=O)OCCCc1ccc(-c2noc(C(F)(F)F)n2)cc1 [Compound 64] | – | – | 100 | 100 | – |
| O=C(Nc1cccnc1)OCCCc1ccc(-c2noc(C(F)(F)F)n2)cc1 [Compound 35] | – | – | 100 | 100 | – |
| CNC(=O)OC(C)c1ccc(-c2noc(C(F)(F)F)n2)cc1 (centres unmarked) [Compound 71] | 83 | 100 | – | – | – |
| COC(=O)c1ccc(NC(=O)OCc2ccc(-c3noc(C(F)(F)F)n3)cc2)cc1 [Compound 47] | – | – | 41 | 100 | – |
| CC#CCNC(=O)OC(C)c1ccc(-c2noc(C(F)(F)F)n2)cc1 (centres unmarked) [Compound 62] | – | – | 100 | 100 | – |
| C#CCNC(=O)OC(c1ccccc1)c1ccc(-c2noc(C(F)(F)F)n2)cc1 (centres unmarked) [Compound 118] | – | – | – | – | Test C disease control rating ([1]; 250 ppm): 100%; Test A disease control rating ([2]; 250 ppm): 100% |
| CN(C)C(=O)OCCc1ccc(-c2noc(C(F)(F)F)n2)cc1 [Compound 44] | 41 | 100 | – | – | – |
| CCCNC(=O)OC(C)c1ccc(-c2noc(C(F)(F)F)n2)s1 (centres unmarked) [Compound 74] | 98 | 100 | – | – | – |
| COC(=O)c1ccc(CNC(=O)OCc2ccc(-c3noc(C(F)(F)F)n3)cc2)cc1 [Compound 24] | 68 | 13 | – | – | – |
| O=C(OCc1ccc(-c2noc(C(F)(F)F)n2)o1)n1ccnc1 [Compound 82] | – | – | – | – | pest or weed control at 50 ppm ([1]; Puccinia recondita, 168 h, 50 ppm, read-out: Test C disease control rating): 0%; pest or weed control at 50 ppm ([2]; Phakopsora pachyrhizi, 216 h, 50 ppm, read-out: Test A disease control rating): 89% |
| CCN(CC)C(=O)OCc1ccc(-c2noc(C(F)(F)F)n2)cc1 [Compound 53] | 68 | 100 | – | – | – |
